# Laboratory results: patent US6043228A, “O^6 -substituted guanine derivatives, a process for their preparation and their use in treating tumor cells” (Cancer Research Campaign Technology Limited, priority 1993, dated 2000)
# Legend:
# ATase = test: Inactivation of ATase in mammalian cells, summary over human, rat and Chinese hamster cell lines; type: cell-based; details: Table 5
# Procedure: Mammalian cells were cultured under standard conditions. For example, Raji (a human lymphoblastoid cell line from a Burkitt's lymphoma) cells were grown in suspension culture in RPMI medium supplemented with 10% horse serum. […]
# Cells were diluted to 10^6 /ml in culture medium containing either the appropriate concentration of inactivator or an equivalent volume of vehicle (DMSO). […] ATase activity was determined as described above, in duplicate sonicated cell extracts and expressed as the, percentage activity remaining based on that present in the untreated controls (for example 350-450 fm/mg in Raji cells).
# recombinant human ATase = biological target: T1, recombinant human ATase (Homo sapiens, UniProt P16455); test: In vitro ATase inactivation assay (incubation with inactivators and ATase assay); type: biochemical; details: recombinant human ATase, standard conditions
# T1 construct: made in house
# T1 sequence (P16455 1-207): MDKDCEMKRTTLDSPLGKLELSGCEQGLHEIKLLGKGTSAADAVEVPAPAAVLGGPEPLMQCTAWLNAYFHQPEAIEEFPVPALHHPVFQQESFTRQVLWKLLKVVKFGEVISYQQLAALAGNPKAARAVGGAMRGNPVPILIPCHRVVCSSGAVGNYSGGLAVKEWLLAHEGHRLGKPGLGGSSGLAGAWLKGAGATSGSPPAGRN
# Procedure: The cDNA cloning and overexpression of the human ATase has been reported previously^23. Purification of the recombinant proteins was achieved either by affinity chromatography through a DNA-cellulose column as described by Wilkinson et al.,^25, 26 or by DEAE-cellulose ion-exchange chromatography. For the latter, the ATase protein was partially purified by ammonium sulphate precipitation (30-60%) and dialysed against 10 mM Tris-HCl pH 7.5, 1 mM DTT, 2 mM EDTA, 10% glycerol, before loading on a DEAE-cellulose column. The ATase was then eluted with a 0-0.1 M NaCl gradient.
# Compounds to be tested were dissolved in DMSO to a final concentration of 10 mM and diluted just before use in buffer I containing 1 mg/ml bovine serum albumin (IBSA). Recombinant ATase was diluted in IBSA and titrated in order that the reaction be conducted under ATase, and not substrate, limiting conditions. […] Following acid hydrolysis of the DNA as previously described^21 the [^3 H]-methylated protein was recovered and quantitated by liquid scintillation counting. Samples were typically assayed in duplicate and experiments repeated several times. I50 is the concentration of inactivator required to produce a 50% reduction in ATase activity.
# [1] = Sensitivity of mammalian cells to the inactivators alone: XP cells; type: cell-based, human; details: human, xp cells; FIG. 6; read-out: dose required for growth inhibition relative to that required for ATase inactivation
# Procedure: (§1) In order to assess the effects on cell growth alone, Xeroderma pigmentosum cells and Chinese Hamster V79 cells were exposed to increasing concentrations (up to 600 μM) of selected inactivators for 2 h at 37°. In some cases, the inactivators were allowed to undergo hydrolysis at 37° C. for 20 hours and then added to Raji cells in order to assess the extent to which the decomposition products of the agents might inhibit cell growth. After 6 days the extent of cell growth was determined as described above.
# [2] = system: Xeroderma pigmentosum cells; test: as above; type: cell-based, human; details: inactivator alone (FIG. 6)
# Procedure: as §1
# [3] = Sensitivity of mammalian cells to the inactivators alone: V79 cells; type: cell-based, Chinese hamster; details: hamster, v79 cells; FIG. 5; read-out: growth inhibitory dose in V79 cells relative to I50 dose
# Procedure: as §1
# [4] = system: Chinese Hamster V79 cells; test: as above; type: cell-based
# Procedure: as §1
structure (smiles),measurement,setting,value
"Nc1nc(OCc2ccco2)c2nc[nH]c2n1 [B.4203, 0^6 -furfurylguanine]",effectiveness relative to BeG in the cell lines used,ATase,up to 7 times
same,"ATase inactivation in vitro, result in words",recombinant human ATase,not as effective as BeG
same,selectivity ratio,[1],≥ 100
same,"growth inhibition / toxicity to XP cells, in words",[2],toxic
same,selectivity ratio,[3],≥ 100
same,toxic concentration in V79 cells relative to concentration sensitizing to BCNU,[4]; FIGS. 5 & 6,at least 100 times
same,dose producing some growth inhibition of V79 cells,"[4]; inactivator alone, 2 h (FIG. 5)",> 100 µM
same,"growth inhibition / toxicity to V79 cells, in words","[4]; inactivator alone, up to 600 μM",toxic
